Assays:
[1] = tested on: patients having diffuse cerebral calcifications; assay: Clinical response to treatment of patients with cerebral calcifications and cerebral folate deficiency (global disability score, subjective evaluations, neurological examination, serial videos); format: in vivo, humans; design: key to Global score after treatment: 1: Autonomous for all activities of daily living; 2: can walk at least 100 meters alone, needs help for few activities of daily living; 3: can walk unaided about 10 meters, needs help for many activities of daily living; 4: can not walk alone, needs aid for most activities of daily living; details: for Global score after treatment: global score before treatment 3
From the text: Three patients having diffuse cerebral calcifications involving the basal ganglia, cerebellar dentate nuclei, white matter and in one patient the occipital cortex (Table 3) were studied. These neuroradiological findings were indistinguishable from Fahr's Syndrome (IBGC MIM # 114100, # 213600). […] Autonomous for all activities of daily living • 2: can walk at least 100 meters alone, needs help for few activities of daily living • 3: can walk unaided about 10 meters, needs help for many activities of daily living • 4: can not walk alone, needs aid for most activities of daily living. The clinical response to treatment was judged based on the patient's, patient's family, nurses and neurologist subjective evaluations, neurological examination and serial videos. A global disability score was designed to evaluate clinical severity and evolution (see table 3 legend). Table 4: Effect of treatments

[2] = quoted from WO 2006/119589; cited from earlier work
[3] = quoted from WO 2006/119589; cited from earlier work; remark: listed apart in the source

Nc1nc2c(c(=O)[nH]1)N(C=O)C(CNc1ccc(C(=O)N[C@@H](CCC(=O)O)C(=O)O)cc1)CN2 (stereo partly shown) [Calcium folinate, 5-formyltetrahydrofolic acid]
other treatments leading to less or only transient improvement ([1]; patient #1, IVIg 0.4gr/kgX5d every 6weeks): Calcium folinate led to marked initial impro-vement that waned after 6 months. IVIg (0.4gr/kgX5d every 6weeks) led to improvement of walking during 4 months
other treatments leading to less or only transient improvement ([1]; patient #3, Calcium folinate 75 mg/d): Calcium folinate 75 mg/d: same effect than MTHF

CN1c2c(nc(N)[nH]c2=O)NCC1CNc1ccc(C(=O)NC(CCC(=O)O)C(=O)O)cc1 (stereo not shown) [MTHF, 5-methyltetrahydrofolate]
Global score after treatment ([1]; patient #1, MTHF 2 mg/kg/d, treatment duration 2 years ½): 2
Global score after treatment ([1]; patient #2, MTHF 2 mg/kg/d, treatment duration 14 months): 3
Global score after treatment ([1]; patient #3, MTHF 1.5 mg/kg/d, treatment duration 1 year): 2
toxicity studies [2]: no adverse effects
bio-availability [3]: high bio-availability
